The source made the active and inactive calls. The calls are words filed in the database; no cut-off is given here.
Legend:
HeLa [1] = experiment: Cytotoxicity against human HeLa cells assessed as reduction in plasma membrane integrity at 1 to 50 uM by LDH release assay; type: functional, cell-based
HeLa [2] = experiment: Cytotoxicity against human HeLa cells assessed as reduction in cell viability after 24 to 48 hrs by MTT assay; type: functional
HeLa [3] = experiment: Cytotoxicity against human HeLa cells assessed as reduction in cell viability after 24 hrs by MTT assay; type: functional
HeLa [4] = experiment: Cytotoxicity against human HeLa cells assessed as reduction in cell viability after 48 hrs by MTT assay; type: functional
HeLa [5] = experiment: Cytotoxicity against human HeLa cells assessed as reduction in cell viability by MTT assay; type: functional, cell-based; settings: TDE = time-dependent effect
Calf thymus DNA [6] = experiment: Binding affinity to calf thymus DNA assessed as DNA intercalation by viscosity study; type: nucleic-acid assay; settings: Bos taurus
Calf thymus DNA [7] = experiment: Binding affinity to calf thymus DNA assessed as change in CD spectrum of DNA by CD titration method; type: nucleic-acid assay; settings: Bos taurus
Calf thymus DNA [8] = experiment: Binding affinity to calf thymus DNA assessed as hypochromic effect by UV-vis spectroscopy; type: nucleic-acid assay; set-up: concentration or dose not given beside the values; settings: Bos taurus
Calf thymus DNA [9] = experiment: Binding affinity to calf thymus DNA assessed by UV-vis spectroscopy; type: nucleic-acid assay; settings: Bos taurus
HeLa [10] = experiment: Cell cycle arrest in human HeLa cells assessed as accumulation of G0/G1 phase after 12 to 24 hrs by flow cytometry; type: functional, cell-based
HeLa [11] = experiment: Cell cycle arrest in human HeLa cells at 4.4 uM after 24 hrs by flow cytometry; type: functional, cell-based
HeLa [12] = experiment: Cell cycle arrest in human HeLa cells assessed as accumulation of cells at sub-G1 phase at 8.8 uM after 24 hrs by flow cytometry; type: functional, cell-based
HeLa [13] = experiment: Cell cycle arrest in human HeLa cells assessed as supression of G2/M phase after 12 to 24 hrs by flow cytometry; type: functional, cell-based
HeLa [14] = experiment: Cell cycle arrest in human HeLa cells at 8.8 uM after 12 hrs by flow cytometry; type: functional, cell-based

In the case of `O=c1c2sc3ccccc3c2nnn1-c1ccc(F)c(Cl)c1`, the Activity (HeLa [1]) is reported as “inactive”, the Activity (HeLa [2]) is reported as “Dose-dependent effect” and the GI50 (HeLa [3]) is reported as 6.35 µM. The GI50 (HeLa [4]) was 2.45 µM, the Activity (HeLa [5]) was “tde” and the Activity (Calf thymus DNA [6]) was “inactive”.
For `COc1cc(-n2nnc3c(sc4ccccc43)c2=O)cc(OC)c1OC`, the Activity (Calf thymus DNA [7]) was “inactive”, the Activity (Calf thymus DNA [8]) was 29% and the Activity (HeLa [2]) was “Dose-dependent effect”. For the same compound, the GI50 (HeLa [3]) was 20.7 µM, the GI50 (HeLa [4]) was 9.44 µM and the Activity (HeLa [5]) was “tde”. For the same compound, the Activity (Calf thymus DNA [6]) was “Active” and the Kb (Calf thymus DNA [9]) was 9.84 ×10⁵ /M.
`Cn1nnc2c(C(N)=O)ncn2c1=O` [TEMOZOLOMIDE] showed a GI50 (HeLa [2]) of over 50 µM.
With `CCOC(=O)c1sc2ccccc2c1/N=N/Nc1cc(OC)c(OC)c(OC)c1` the Activity (Calf thymus DNA [7]) was “inactive”, the Activity (Calf thymus DNA [8]) was 11% and the Activity (HeLa [2]) was “Dose-dependent effect”. For the same compound, the GI50 (HeLa [3]) was 22.8 µM, the GI50 (HeLa [4]) was 14.4 µM and the Activity (HeLa [5]) was “tde”. The Activity (Calf thymus DNA [6]) was “Active” and the Kb (Calf thymus DNA [9]) was 4.14 ×10⁶ /M.
In the case of `CCOC(=O)c1sc2ccccc2c1/N=N/Nc1ccc(OC)cc1`, the Activity (HeLa [2]) is reported as “Dose-dependent effect”, the GI50 (HeLa [3]) is reported as 49.1 µM and the GI50 (HeLa [4]) is reported as 17.4 µM. For the same compound, the Activity (HeLa [5]) was “tde”.
For `CCOC(=O)c1sc2ccccc2c1/N=N/Nc1ccc(F)c(Cl)c1`, the Activity (HeLa [2]) was “Dose-dependent effect”, the GI50 (HeLa [3]) was 31.4 µM and the GI50 (HeLa [4]) was 12.9 µM. The Activity (HeLa [5]) was “tde” and the Activity (Calf thymus DNA [6]) was “inactive”.
With `O=c1c2sc3ccccc3c2nnn1-c1ccccc1` the Activity (Calf thymus DNA [7]) was “inactive”, the Activity (Calf thymus DNA [8]) was 85% and the Activity (HeLa [2]) was “Dose-dependent effect”. For the same compound, the GI50 (HeLa [3]) was 18.6 µM, the GI50 (HeLa [4]) was 9.79 µM and the Activity (HeLa [5]) was “tde”. The Activity (Calf thymus DNA [6]) was “Active” and the Kb (Calf thymus DNA [9]) was 6.67 ×10⁵ /M.
In the case of `COc1ccc(-n2nnc3c(sc4ccccc43)c2=O)cc1`, the Activity (Calf thymus DNA [7]) is reported as “Active”, the Activity (HeLa [10]) is reported as “Dose-dependent effect” and the Activity (HeLa [1]) is reported as “inactive”. For the same compound, the Activity (HeLa [11]) was “Active”, the Activity (Calf thymus DNA [8]) was 28% and the Activity (HeLa [2]) was “Dose-dependent effect”. The GI50 (HeLa [3]) was 4.37 µM, the Activity (HeLa [12]) was “Active” and the GI50 (HeLa [4]) was 1.24 µM. For the same compound, the Activity (HeLa [13]) was “Dose-dependent effect”, the Activity (HeLa [5]) was “tde” and the Activity (Calf thymus DNA [6]) was “Active”. For the same compound, the Activity (HeLa [14]) was “Active” and the Kb (Calf thymus DNA [9]) was 9.72 ×10⁴ /M.
In the case of `CCOC(=O)c1sc2ccccc2c1/N=N/Nc1ccccc1`, the Activity (Calf thymus DNA [7]) is reported as “Active”, the Activity (Calf thymus DNA [8]) is reported as 12% and the Activity (HeLa [2]) is reported as “Dose-dependent effect”. The GI50 (HeLa [3]) was 49.3 µM, the GI50 (HeLa [4]) was 26.1 µM and the Activity (HeLa [5]) was “tde”. The Activity (Calf thymus DNA [6]) was “Active” and the Kb (Calf thymus DNA [9]) was 9.87 ×10⁵ /M.
With `Cc1ccc(-n2nnc3c(sc4ccccc43)c2=O)cc1` the Activity (Calf thymus DNA [7]) was “Active”, the Activity (HeLa [1]) was “inactive” and the Activity (Calf thymus DNA [8]) was 25%. For the same compound, the Activity (HeLa [2]) was “Dose-dependent effect”, the GI50 (HeLa [3]) was 5.32 µM and the GI50 (HeLa [4]) was 1.88 µM. For the same compound, the Activity (HeLa [5]) was “tde”, the Activity (Calf thymus DNA [6]) was “Active” and the Kb (Calf thymus DNA [9]) was 1.23 ×10⁵ /M.
In the case of `CCOC(=O)c1sc2ccccc2c1/N=N/Nc1ccc(C)cc1`, the Activity (HeLa [2]) is reported as “Dose-dependent effect”, the GI50 (HeLa [3]) is reported as 42.1 µM and the GI50 (HeLa [4]) is reported as 18.3 µM. For the same compound, the Activity (HeLa [5]) was “tde” and the Activity (Calf thymus DNA [6]) was “inactive”.
`CN(C)/N=N/c1[nH]cnc1C(N)=O` [DACARBAZINE] showed a GI50 (HeLa [2]) of over 50 µM.

Reference: ChEMBL document CHEMBL3352190, “New benzothieno[3,2-d]-1,2,3-triazines with antiproliferative activity: synthesis, spectroscopic studies, and biological activity” (2014)
